Values quoted from earlier work in patent US20250051276A1 (priority 2021, published 2025).

Experiments:
mice = details: hallucinogenic potential; cited from earlier work
5HT2A sensor [1] = details: cited from earlier work
5HT2A sensor [2] = details: cited from earlier work; remark: listed apart in the source

Row | SMILES | head-twitch response (HTR) (mice) | activation of the 5HT2A sensor assay in agonist mode (5HT2A sensor [1]) | competition with 5-HT in the 5HT2A sensor assay in antagonist mode (5HT2A sensor [2])
1 | COc1ccc2[nH]cc(CCN(C)C)c2c1 [Compound 5-MeO-DMT, 5-MeO-DMT] | produces a robust, dose-dependent head-twitch response | activate the 5HT2A sensor assay in agonist mode | 
2 | COc1ccc2c(CCN(C)C)c[nH]c2c1 [Compound 6-MeO-DMT, 6-MeO-DMT] | does not produce a HTR | do not activate the 5HT2A sensor assay in agonist mode | compete off 5-HT
3 | O=C(c1ccc(F)cc1)C1CCN(CCn2c(=O)[nH]c3ccccc3c2=O)CC1 [Ketanserin] |  | do not activate the 5HT2A sensor assay in agonist mode | can compete with 5HT binding to 5HT2A
